Measurements from ChEMBL document CHEMBL6071142, “Isoalantolactone/hydroxamic acid hybrids as potent dual STAT3/HDAC inhibitors and self-assembled nanoparticles for cancer therapy” (Eur J Med Chem, 2024).

Columns and labels:
Histone deacetylase 1 = Histone deacetylase 1 (Homo sapiens, UniProt Q13547); assay: Inhibition of recombinant human HDAC1 using Boc-Lys (acetyl)-AMC as substrate preincubated with compound for 1 hr followed by substrate addition and measured after 30 mins by microplate reader assay
Histone deacetylase 2 = Histone deacetylase 2 (Homo sapiens, UniProt Q92769); assay: Inhibition of recombinant human HDAC2 using Boc-Lys (acetyl)-AMC as substrate preincubated with compound for 1 hr followed by substrate addition and measured after 30 mins by microplate reader assay
Histone deacetylase 3 = Histone deacetylase 3 (Homo sapiens, UniProt O15379); assay: Inhibition of recombinant human HDAC3 using Boc-Lys (acetyl)-AMC as substrate preincubated with compound for 1 hr followed by substrate addition and measured after 30 mins by microplate reader assay
[1] = molecular target: T1, Protein deacetylase HDAC6 (Homo sapiens, UniProt Q9UBN7); assay: Inhibition of recombinant human HDAC6 using Boc-Lys (acetyl)-AMC as substrate preincubated with compound for 1 hr followed by substrate addition and measured after 30 mins by microplate reader assay
T1 sequence (Q9UBN7 whole entry): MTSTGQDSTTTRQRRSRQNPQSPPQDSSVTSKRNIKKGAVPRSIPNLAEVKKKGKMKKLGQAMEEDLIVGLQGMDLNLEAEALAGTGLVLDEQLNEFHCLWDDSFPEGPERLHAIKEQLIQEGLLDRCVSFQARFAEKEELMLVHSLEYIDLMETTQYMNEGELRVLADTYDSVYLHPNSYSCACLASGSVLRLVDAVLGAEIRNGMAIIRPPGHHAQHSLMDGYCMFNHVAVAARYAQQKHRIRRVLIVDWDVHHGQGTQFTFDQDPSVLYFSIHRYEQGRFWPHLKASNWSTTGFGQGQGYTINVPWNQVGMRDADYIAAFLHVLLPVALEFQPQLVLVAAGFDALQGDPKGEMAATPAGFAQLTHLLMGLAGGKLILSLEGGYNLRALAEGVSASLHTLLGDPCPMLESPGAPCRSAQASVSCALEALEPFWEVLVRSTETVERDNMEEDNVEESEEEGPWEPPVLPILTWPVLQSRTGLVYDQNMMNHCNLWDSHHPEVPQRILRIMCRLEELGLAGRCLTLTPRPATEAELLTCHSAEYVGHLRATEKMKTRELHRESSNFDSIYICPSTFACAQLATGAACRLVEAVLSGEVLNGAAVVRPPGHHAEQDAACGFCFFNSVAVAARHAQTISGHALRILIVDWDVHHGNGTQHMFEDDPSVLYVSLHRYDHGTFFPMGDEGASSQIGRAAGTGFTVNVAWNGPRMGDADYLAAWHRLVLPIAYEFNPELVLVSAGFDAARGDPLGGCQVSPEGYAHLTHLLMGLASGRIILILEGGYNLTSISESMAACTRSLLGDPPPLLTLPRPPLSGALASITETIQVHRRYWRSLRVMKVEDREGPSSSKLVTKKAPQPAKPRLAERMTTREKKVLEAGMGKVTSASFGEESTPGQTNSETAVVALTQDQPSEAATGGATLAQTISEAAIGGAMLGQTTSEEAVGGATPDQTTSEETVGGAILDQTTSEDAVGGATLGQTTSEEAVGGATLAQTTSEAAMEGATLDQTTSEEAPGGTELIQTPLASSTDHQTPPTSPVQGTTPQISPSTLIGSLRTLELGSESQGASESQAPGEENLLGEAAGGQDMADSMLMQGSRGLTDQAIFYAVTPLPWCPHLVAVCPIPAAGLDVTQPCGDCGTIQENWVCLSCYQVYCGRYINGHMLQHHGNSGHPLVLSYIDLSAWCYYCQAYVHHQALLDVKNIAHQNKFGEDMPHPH

[2] = molecular target: Signal transducer and activator of transcription 3 (Homo sapiens, UniProt P40763); assay: Binding affinity to STAT3 (unknown origin) assessed as dissociation constant by SPR assay
A549 [3] = assay: cells; assay type: functional, cell-based; details: Homo sapiens, A549, 72 h
Description: Antiproliferative activity against human A549 cells assessed as inhibition of cell proliferation incubated for 72 hrs by CCK-8 assay

A549 [4] = assay: Induction of apoptosis in human A549 cells assessed as viable cells at 2 uM incubated for 24 hrs by Annexin V-FITC/PI staining based flow cytometric analysis (reference value: 95.08%); assay type: functional
A549 [5] = assay: Induction of apoptosis in human A549 cells assessed as early apoptotic cells at 2 uM incubated for 24 hrs by Annexin V-FITC/PI staining based flow cytometric analysis (reference value: 1.53%); assay type: functional
A549 [6] = assay: Induction of apoptosis in human A549 cells assessed as late apoptotic cells at 2 uM incubated for 24 hrs by Annexin V-FITC/PI staining based flow cytometric analysis (reference value: 2.18%); assay type: functional
A549 [7] = assay: Induction of apoptosis in human A549 cells assessed as necrotic cells at 2 uM incubated for 24 hrs by Annexin V-FITC/PI staining based flow cytometric analysis (reference value: 1.20%); assay type: functional
A549 [8] = assay: In vivo antitumor activity against human A549 cells xenografted in female BALB/c nu/nu mouse assessed as tumor volume at 10 mg/kg, iv administered every 3 days and measured on 18 day relative to control; assay type: functional; details: time 3 day
HCT-116 = assay: cells; details: Homo sapiens, HCT-116, 72 h
Description: Antiproliferative activity against human HCT-116 cells assessed as inhibition of cell proliferation incubated for 72 hrs by CCK-8 assay

HeLa = assay: cells; assay type: functional, cell-based; details: Homo sapiens, 72 h
Description: Antiproliferative activity against human Hela cells assessed as inhibition of cell proliferation incubated for 72 hrs by CCK-8 assay

HepG2 = assay: Antiproliferative activity against human HepG2 cells assessed as inhibition of cell proliferation incubated for 72 hrs by CCK-8 assay; assay type: functional, cell-based; details: HepG2, 72 h

Sequence of Histone deacetylase 3 (O15379 whole entry): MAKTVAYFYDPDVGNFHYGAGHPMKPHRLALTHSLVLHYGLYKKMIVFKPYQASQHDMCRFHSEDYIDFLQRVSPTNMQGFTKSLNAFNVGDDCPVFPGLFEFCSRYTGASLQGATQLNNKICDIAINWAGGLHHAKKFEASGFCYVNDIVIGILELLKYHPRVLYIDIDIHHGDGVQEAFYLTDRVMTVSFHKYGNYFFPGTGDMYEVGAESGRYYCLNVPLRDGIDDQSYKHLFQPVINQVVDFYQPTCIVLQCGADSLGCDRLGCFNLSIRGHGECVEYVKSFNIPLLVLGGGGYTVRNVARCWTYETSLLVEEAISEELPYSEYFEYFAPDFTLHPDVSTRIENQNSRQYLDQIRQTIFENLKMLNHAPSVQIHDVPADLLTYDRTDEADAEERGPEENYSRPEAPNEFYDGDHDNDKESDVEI
Sequence of Histone deacetylase 1 (Q13547 whole entry): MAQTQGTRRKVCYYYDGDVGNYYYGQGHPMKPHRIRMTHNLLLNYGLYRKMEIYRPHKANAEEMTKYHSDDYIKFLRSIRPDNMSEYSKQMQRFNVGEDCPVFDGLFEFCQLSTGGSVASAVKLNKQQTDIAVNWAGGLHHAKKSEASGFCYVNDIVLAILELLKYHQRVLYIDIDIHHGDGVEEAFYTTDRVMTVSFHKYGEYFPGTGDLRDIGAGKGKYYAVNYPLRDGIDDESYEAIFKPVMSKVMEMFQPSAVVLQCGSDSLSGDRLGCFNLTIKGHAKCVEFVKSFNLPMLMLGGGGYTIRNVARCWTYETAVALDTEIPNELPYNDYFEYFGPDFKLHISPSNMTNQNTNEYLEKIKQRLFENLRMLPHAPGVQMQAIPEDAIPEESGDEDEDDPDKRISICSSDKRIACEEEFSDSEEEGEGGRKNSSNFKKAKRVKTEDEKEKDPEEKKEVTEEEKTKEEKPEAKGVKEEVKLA
Sequence of Signal transducer and activator of transcription 3 (P40763 whole entry): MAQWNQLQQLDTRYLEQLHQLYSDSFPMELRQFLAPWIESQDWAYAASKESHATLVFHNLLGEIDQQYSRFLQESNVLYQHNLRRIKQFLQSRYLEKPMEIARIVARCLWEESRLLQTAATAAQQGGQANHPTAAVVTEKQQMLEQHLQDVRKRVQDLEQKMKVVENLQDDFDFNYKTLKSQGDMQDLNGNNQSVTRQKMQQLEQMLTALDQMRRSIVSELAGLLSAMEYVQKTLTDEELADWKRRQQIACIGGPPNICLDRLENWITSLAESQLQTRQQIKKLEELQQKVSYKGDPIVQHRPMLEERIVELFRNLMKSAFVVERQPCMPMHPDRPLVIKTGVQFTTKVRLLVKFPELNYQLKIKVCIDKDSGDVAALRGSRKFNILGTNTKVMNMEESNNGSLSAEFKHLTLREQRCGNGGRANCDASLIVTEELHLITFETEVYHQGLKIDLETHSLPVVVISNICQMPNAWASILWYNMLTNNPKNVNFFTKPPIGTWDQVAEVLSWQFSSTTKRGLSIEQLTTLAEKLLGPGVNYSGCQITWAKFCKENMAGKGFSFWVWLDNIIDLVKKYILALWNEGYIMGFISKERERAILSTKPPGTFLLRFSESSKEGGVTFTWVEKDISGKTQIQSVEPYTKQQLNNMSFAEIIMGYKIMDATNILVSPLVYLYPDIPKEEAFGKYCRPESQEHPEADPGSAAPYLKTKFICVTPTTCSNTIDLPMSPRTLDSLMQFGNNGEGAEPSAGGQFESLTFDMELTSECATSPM
Sequence of Histone deacetylase 2 (Q92769 whole entry): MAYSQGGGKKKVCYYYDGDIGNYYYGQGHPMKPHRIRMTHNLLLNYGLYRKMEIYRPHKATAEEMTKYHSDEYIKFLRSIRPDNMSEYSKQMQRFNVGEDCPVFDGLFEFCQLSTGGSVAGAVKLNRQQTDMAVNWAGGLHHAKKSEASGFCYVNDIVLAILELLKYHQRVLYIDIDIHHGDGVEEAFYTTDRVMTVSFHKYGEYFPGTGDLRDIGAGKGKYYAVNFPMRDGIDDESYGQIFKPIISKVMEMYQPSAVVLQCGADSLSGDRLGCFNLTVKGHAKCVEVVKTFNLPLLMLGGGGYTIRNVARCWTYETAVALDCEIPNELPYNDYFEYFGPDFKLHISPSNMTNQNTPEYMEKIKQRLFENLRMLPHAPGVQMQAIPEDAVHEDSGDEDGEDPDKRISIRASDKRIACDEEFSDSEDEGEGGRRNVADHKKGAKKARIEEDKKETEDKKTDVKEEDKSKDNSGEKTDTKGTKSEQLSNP

Row | SMILES | IC50 (Histone deacetylase 1) | IC50 (Histone deacetylase 2) | IC50 (Histone deacetylase 3) | IC50 [1] | Kd [2] | IC50 (A549 [3]) | IC50 (HCT-116) | IC50 (HeLa) | IC50 (HepG2) | Activity (A549 [4]) | Activity (A549 [5]) | Activity (A549 [6]) | Activity (A549 [7]) | Activity (A549 [8]) | viability at 2 µM (A549 [4]; Homo sapiens, A549, read-out: Activity)
1 | O=C(CCCCCCC(=O)Nc1ccccc1)NO [VORINOSTAT] |  |  |  |  | > 50 µM |  | 1.87 µM |  |  | 67.04% | 5.72% | 24.68% | 2.58% | 61% | 
2 | C=C1C(=O)O[C@@H]2C[C@@]3(C)CCCC(=C)[C@@H]3C[C@H]12 [ISOALANTOLACTONE] | > 1 µM | > 1 µM | > 1 µM | > 1 µM | 46.1 µM | 1.81 µM | 2.61 µM | 4.38 µM | 7.25 µM |  | 3.67% | 10.91% | 1.82% |  | 83.6%
3 | C=C1C(=O)O[C@@H]2C[C@@]3(C)CC[C@@H](OC(=O)[C@@H](NC(=O)c4ccc(C(=O)Nc5ccccc5N)cc4)C(C)C)C(=C)[C@@H]3C[C@H]12 | > 1 µM | > 1 µM | > 1 µM | > 1 µM | 17.4 µM | > 10 µM |  |  |  |  |  |  |  |  | 
4 | C=C1C(=O)O[C@@H]2C[C@@]3(C)CC[C@@H](OC(=O)[C@@H](CC)NC(=O)c4ccc(C(=O)Nc5ccccc5N)cc4)C(=C)[C@@H]3C[C@H]12 | 6.51 µM | > 1 µM | > 1 µM | > 1 µM | 20.7 µM | 6.67 µM |  |  |  |  |  |  |  |  | 
5 | C=C1C(=O)O[C@@H]2C[C@@]3(C)CC[C@@H](OC(=O)[C@@H](CC(C)C)NC(=O)c4ccc(C(=O)Nc5ccccc5N)cc4)C(=C)[C@@H]3C[C@H]12 | 0.453 µM | > 1 µM | > 1 µM | > 1 µM | 6.88 µM | 5.61 µM |  |  |  |  |  |  |  |  | 
6 | C=C1C(=O)O[C@@H]2C[C@@]3(C)CC[C@@H](OC(=O)[C@H](Cc4ccccc4)NC(=O)c4ccc(C(=O)Nc5ccccc5N)cc4)C(=C)[C@@H]3C[C@H]12 | > 1 µM | > 1 µM | > 1 µM | > 1 µM | > 50 µM | > 10 µM |  |  |  |  |  |  |  |  | 
7 | C=C1C(=O)O[C@@H]2C[C@@]3(C)CC[C@@H](OC(=O)[C@@H](Cc4ccccc4)NC(=O)c4ccc(C(=O)Nc5ccccc5N)cc4)C(=C)[C@@H]3C[C@H]12 | 0.622 µM | > 1 µM | > 1 µM | > 1 µM | 4.76 µM | 7.47 µM |  |  |  |  |  |  |  |  | 
8 | C=C1C(=O)O[C@@H]2C[C@@]3(C)CC[C@@H](OC(=O)[C@@H](C)NC(=O)c4ccc(C(=O)NO)cc4)C(=C)[C@@H]3C[C@H]12 | 0.748 µM | > 1 µM | > 1 µM | 0.163 µM | 20.1 µM | > 10 µM |  |  |  |  |  |  |  |  | 
9 | C=C1C(=O)O[C@@H]2C[C@@]3(C)CC[C@@H](OC(=O)[C@H](NC(=O)c4ccc(C(=O)Nc5ccccc5N)cc4)C(C)C)C(=C)[C@@H]3C[C@H]12 | > 1 µM | > 1 µM | > 1 µM | > 1 µM | > 50 µM | > 10 µM |  |  |  |  |  |  |  |  | 
10 | C=C1C(=O)O[C@@H]2C[C@@]3(C)CC[C@@H](OC(=O)[C@H](CC)NC(=O)c4ccc(C(=O)Nc5ccccc5N)cc4)C(=C)[C@@H]3C[C@H]12 | > 1 µM | > 1 µM | > 1 µM | > 1 µM | 22.6 µM | > 10 µM |  |  |  |  |  |  |  |  | 
11 | C=C1C(=O)O[C@@H]2C[C@@]3(C)CC[C@@H](OC(=O)[C@H](CC(C)C)NC(=O)c4ccc(C(=O)Nc5ccccc5N)cc4)C(=C)[C@@H]3C[C@H]12 | > 1 µM | > 1 µM | > 1 µM | > 1 µM | > 50 µM | > 10 µM |  |  |  |  |  |  |  |  | 

More lines, main results first:

Row | IC50 (Histone deacetylase 1) | IC50 (Histone deacetylase 2) | IC50 (Histone deacetylase 3) | IC50 [1] | Kd [2] | IC50 (A549 [3]) | IC50 (HCT-116) | IC50 (HeLa) | IC50 (HepG2) | SMILES | Activity (A549 [4]) | Activity (A549 [5]) | Activity (A549 [6]) | Activity (A549 [7]) | Activity (A549 [8]) | viability at 2 µM (A549 [4]; Homo sapiens, A549, read-out: Activity)
12 | 0.122 µM | 0.507 µM | 0.473 µM | > 1 µM | 4.96 µM | 2.24 µM |  |  |  | C=C1C(=O)O[C@@H]2C[C@@]3(C)CC[C@@H](OC(=O)[C@@H](C)NC(=O)c4ccc(C(=O)Nc5ccccc5N)cc4)C(=C)[C@@H]3C[C@H]12 |  |  |  |  |  | 
13 | > 1 µM | > 1 µM | > 1 µM | > 1 µM | 8.96 µM | 3.34 µM |  |  |  | C=C1C(=O)O[C@@H]2C[C@@]3(C)CC[C@@H](OC(=O)[C@H](C)NC(=O)c4ccc(C(=O)Nc5ccccc5N)cc4)C(=C)[C@@H]3C[C@H]12 |  |  |  |  |  | 
14 | > 1 µM | > 1 µM | > 1 µM | > 1 µM | 39.3 µM | > 10 µM |  |  |  | C=C1C(=O)O[C@@H]2C[C@@]3(C)CC[C@@H](OC(=O)CNC(=O)c4ccc(C(=O)Nc5ccccc5N)cc4)C(=C)[C@@H]3C[C@H]12 |  |  |  |  |  | 
15 | 0.0865 µM | 0.0927 µM | 0.0631 µM | 0.0453 µM |  | 1.87 µM |  |  |  | C=C1C(=O)O[C@@H]2C[C@@]3(C)CC[C@@H](OC(=O)CNC(=O)c4cccc(/C=C/C(=O)NO)c4)C(=C)[C@@H]3C[C@H]12 |  |  |  |  |  | 
16 | 0.206 µM | 0.404 µM | 0.113 µM | 0.0624 µM | 12.3 µM | 4.53 µM |  |  |  | C=C1C(=O)O[C@@H]2C[C@@]3(C)CC[C@@H](OC(=O)[C@H](C)NC(=O)c4cccc(/C=C/C(=O)NO)c4)C(=C)[C@@H]3C[C@H]12 |  |  |  |  |  | 
17 | 0.568 µM | 0.844 µM | 0.441 µM | 0.267 µM | > 50 µM | > 10 µM |  |  |  | C=C1C(=O)O[C@@H]2C[C@@]3(C)CC[C@@H](OC(=O)[C@H](C)NC(=O)c4ccc(C(=O)NO)cc4)C(=C)[C@@H]3C[C@H]12 |  |  |  |  |  | 
18 |  | 0.212 µM |  |  | > 50 µM | 6.4 µM |  |  |  | Nc1ccc(F)cc1NC(=O)c1ccc(CNC(=O)/C=C/c2cccnc2)cc1 |  |  |  |  |  | 
19 | 0.193 µM | 0.342 µM | 0.272 µM | 0.064 µM | 3.89 µM | 4.53 µM |  |  |  | C=C1C(=O)O[C@@H]2C[C@@]3(C)CC[C@@H](OC(=O)[C@@H](C)NC(=O)c4ccc(/C=C/C(=O)NO)cc4)C(=C)[C@@H]3C[C@H]12 |  |  |  |  |  | 
20 | 0.197 µM | 0.313 µM | 0.103 µM | 0.0869 µM | 13.5 µM | 4.33 µM |  |  |  | C=C1C(=O)O[C@@H]2C[C@@]3(C)CC[C@@H](OC(=O)[C@@H](C)NC(=O)c4cccc(/C=C/C(=O)NO)c4)C(=C)[C@@H]3C[C@H]12 |  |  |  |  |  | 
21 | 0.202 µM | 0.189 µM | 0.107 µM | 0.0875 µM | > 50 µM | 2.56 µM |  |  |  | C=C1C(=O)O[C@@H]2C[C@@]3(C)CC[C@@H](OC(=O)CNC(=O)c4ccc(C(=O)NO)cc4)C(=C)[C@@H]3C[C@H]12 |  |  |  |  |  | 
